Values of other authors as cited in patent US8071794B2, “Long wavelength thiol-reactive fluorophores” (Becton, Dickinson and Company, priority 2004, dated 2011).

Conditions: changing environment from methanol (polar protic) to toluene (non-polar); cited from earlier work

CN(C)c1ccc(C2=C(O)C(c3ccc(N(C)C)cc3)=C2O)cc1 [squaraine nucleus III]
increase in fluorescence quantum yield: 20 fold
